Structures can show the parent of a compound that is named as a salt. Where two headings read alike, the source gives them in different places.

For one assay, the target named is T1, P38b MAPK (Homo sapiens, UniProt Q15759).
T1 construct: All protein kinases were of human origin and encoded full length proteins, unless indicated otherwise; made in house
Put plainly: P38b MAPK protein kinase assay. Conditions: for remaining activity at 10 µM: 10 μM compound; for residual kinase activity P38b MAPK: 1 μm compound; for remaining activity at 1 µM: 1 μM compound. Format: biochemical. The text has this:
(§1) All protein kinases were of human origin and encoded full length proteins, unless indicated otherwise. They were either expressed as glutathione S-transferase (GST) fusion proteins in Escherichia Coli or as hexahistidine (His6)-tagged proteins in insect Sf21 cells. GST fusion proteins were purified by affinity chromatography on glutathione-Sepharose, and His6-tagged proteins on nickel/nitriloacetate-agarose. The procedures for expressing some of the protein kinases used herein have been detailed previously.^8,9 The following sections outline the DNA vectors synthesised and the procedures used to express and purifying protein kinases that have not been reported previously.
(§2) All assays (25.5 μl) were carried out at room temperature (21° C.) and were linear with respect to time and enzyme concentration under the conditions used. Assays were performed for 30 min using Multidrop Micro reagent dispensers (Thermo Electron Corporation, Waltham, Mass. 02454, USA) in a 96-well format. The concentration of magnesium acetate in the assays was 10 mM and the [γ-33P] ATP (800 cpm/pmol) was used at 5, 20 or 50 μM as indicated, in order to be at or below the Km for ATP for each enzyme. Protein kinases assayed at 5 μM ATP were: —ERK1, ERK8, PKBα, MARK3, Aurora C. Protein kinases assayed at 20 μM ATP were: —JNK1, PDK1, CHK1, CHK2, CDK2 and Aurora B. Protein kinases assayed at 50 μM ATP were: —MNK2, IKKepsilon and TBK1.
(§3) The assays were initiated with MgATP, stopped by addition of 5 μl of 0.5 M orthophosphoric acid and spotted on to P81 filterplates using a unifilter harvester (PerkinElmer, Boston, Mass. 02118, USA). The IC50 values of inhibitors were determined after carrying out assays at 10 different concentrations of each compound.
(§4) Unless stated otherwise, enzymes were diluted in 50 mM Tris/HCl pH 7.5, 0.1 mM EGTA, 1 mg/ml BSA, 0.1% (v/v) 2-mercaptoethanol and assayed in 50 mM Tris/HCl pH 7.5, 0.1 mM EGTA, 0.1% (v/v) 2-mercaptoethanol.

A further assay deals with T2, RSK1 (Homo sapiens, UniProt Q15418).
T2 construct: All protein kinases were of human origin and encoded full length proteins, unless indicated otherwise; made in house
The experiment in a line: RSK1 protein kinase assay. Conditions: for remaining activity at 10 µM: 10 μM compound; for residual kinase activity RSK1: 1 μm compound; for remaining activity at 1 µM: 1 μM compound. Format: biochemical.
Source text: as §1, §2, §3, §4

The target in another assay is T3, PRK2 (Homo sapiens, UniProt Q16513).
T3 construct: All protein kinases were of human origin and encoded full length proteins, unless indicated otherwise; made in house
Put plainly: PRK2 protein kinase assay. The conditions noted are these: for remaining activity at 10 µM: 10 μM compound; for residual kinase activity PRK2: 1 μm compound; for remaining activity at 1 µM: 1 μM compound. Format: biochemical.
Source text: as §1, §2, §3, §4

Another assay deals with T4, MNK2 (Homo sapiens, UniProt Q9HBH9).
T4 construct: All protein kinases were of human origin and encoded full length proteins, unless indicated otherwise; GST; made in house; host or cells: E. coli
Put plainly: MNK2 protein kinase assay. Format: biochemical. Conditions: for remaining activity at 10 µM: 10 μM compound; for residual kinase activity MNK2: 1 μm compound; for remaining activity at 1 µM: 1 μM compound.
Source text: as §1
The following proteins were expressed in E. coli: —CHK2[5-543], cyclin-dependent protein kinase 2 (CDK2), MAP kinase-interacting kinase 2 (MNK2), extra-cellular signal-regulated kinase 1 (ERK1).
In order to produce activated forms of Aurora B and Aurora C, insect Sf21 cells were incubated for 1 h with the protein phosphatase inhibitor okadaic acid (50 nM). JNK isoforms were activated with MKK4 and MKK7, MNK2 with p38α MAPkinase; PKBα, PKBβ, with PDK1, and ERK1 with MKK1. To activate CDK2, bacterial pellets expressing cyclin A2 and CDK2 were mixed together, lyse and purified on glutathione Sepharose. The GST-tags were removed by cleavage with PreScission protease and the CDK2-cyclin A2 complex purified by chromatography on SP-Sepharose. It was then activated with CAK1/CDK7 followed by chromatography on nickel-nitrilotriacetate agarose to remove CAK1/CDK7, which binds to this column by virtue of its C-terminal His6 tag. All the other protein kinases were active as expressed.
as §2, §3
ERK1 and ERK8 were both assayed against myelin basic protein (MBP, 0.33 mg/ml). MARK3 was assayed against the peptide […] (300 μM), MNK2 against the eIF4E protein (0.5 mg/ml). PKBβ was assayed against the peptide […] (30 μM). TBK1 were assayed against ([…]) (300 μM). The substrates used for other protein kinases were described previously.^8,9
as §4

For another assay, the target named is T5, PRAK (Homo sapiens, UniProt Q8IW41).
T5 construct: All protein kinases were of human origin and encoded full length proteins, unless indicated otherwise; made in house
T5 sequence (Q8IW41 1-473): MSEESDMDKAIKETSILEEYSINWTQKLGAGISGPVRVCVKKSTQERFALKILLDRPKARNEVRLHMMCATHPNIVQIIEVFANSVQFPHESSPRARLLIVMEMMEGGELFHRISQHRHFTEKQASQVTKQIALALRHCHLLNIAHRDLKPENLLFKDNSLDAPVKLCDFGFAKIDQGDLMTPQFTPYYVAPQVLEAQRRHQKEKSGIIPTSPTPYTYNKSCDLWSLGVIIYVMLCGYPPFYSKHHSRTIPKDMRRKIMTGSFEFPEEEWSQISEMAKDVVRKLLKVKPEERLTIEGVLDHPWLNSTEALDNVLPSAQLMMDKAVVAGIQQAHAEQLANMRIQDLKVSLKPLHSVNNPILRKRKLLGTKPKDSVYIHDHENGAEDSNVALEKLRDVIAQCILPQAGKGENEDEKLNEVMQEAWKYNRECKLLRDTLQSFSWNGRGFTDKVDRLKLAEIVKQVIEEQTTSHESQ
Put plainly: PRAK protein kinase assay. The format is biochemical. The conditions noted are these: for remaining activity at 10 µM: 10 μM compound; for residual kinase activity PRAK: 1 μm compound; for remaining activity at 1 µM: 1 μM compound.
Source text: as §1, §2, §3, §4

The target in another assay is T6, PLK1 (Okadaic Acid) (Homo sapiens, UniProt P53350).
T6 construct: All protein kinases were of human origin and encoded full length proteins, unless indicated otherwise; made in house; host or cells: probably Sf21 insect cells treated with okadaic acid (inferred from the row name; the text says this only of Aurora B and C)
The experiment in a line: PLK1 (Okadaic Acid) protein kinase assay. The format is biochemical. Conditions: for remaining activity at 10 µM: 10 μM compound; for residual kinase activity PLK1 (Okadaic Acid): 1 μm compound; for remaining activity at 1 µM: 1 μM compound.
Source text: as §1, §2, §3, §4

A further assay has as its system CK2. Put plainly: CK2 protein kinase assay. Format: biochemical, human. Conditions: for residual kinase activity: CK2.
Source text: as §1, §2, §3, §4

In the next assay the target is T7, NEK6 (Homo sapiens, UniProt Q9HC98).
T7 construct: All protein kinases were of human origin and encoded full length proteins, unless indicated otherwise; made in house
Put plainly: NEK6 protein kinase assay. Format: biochemical. The conditions noted are these: for remaining activity at 10 µM: 10 μM compound; for residual kinase activity NEK6: 1 μm compound; for remaining activity at 1 µM: 1 μM compound.
Source text: as §1, §2, §3, §4

Where [1] appears, read: read-out: residual kinase activity P38b MAPK.
[2] abbreviates: read-out: residual kinase activity RSK1.
Where [3] appears, read: read-out: residual kinase activity PRK2.
The mark [4] stands for this setting: read-out: residual kinase activity MNK2.
Where [5] appears, read: read-out: residual kinase activity PRAK.
Setting [6] is: read-out: residual kinase activity PLK1 (Okadaic Acid).
The mark [7] stands for this setting: read-out: residual kinase activity NEK6.
Setting [8] is: P38b MAPK, read-out: residual kinase activity.
The mark [9] stands for this setting: RSK1, read-out: residual kinase activity.
Where [10] appears, read: PRK2, read-out: residual kinase activity.
The mark [11] stands for this setting: MNK2, 50 μM ATP, read-out: residual kinase activity.
Setting [12] is: PRAK, read-out: residual kinase activity.
Where [13] appears, read: PLK1 (Okadaic Acid), read-out: residual kinase activity.
[14] abbreviates: NEK6, read-out: residual kinase activity.

T2 sequence (Q15418 whole entry): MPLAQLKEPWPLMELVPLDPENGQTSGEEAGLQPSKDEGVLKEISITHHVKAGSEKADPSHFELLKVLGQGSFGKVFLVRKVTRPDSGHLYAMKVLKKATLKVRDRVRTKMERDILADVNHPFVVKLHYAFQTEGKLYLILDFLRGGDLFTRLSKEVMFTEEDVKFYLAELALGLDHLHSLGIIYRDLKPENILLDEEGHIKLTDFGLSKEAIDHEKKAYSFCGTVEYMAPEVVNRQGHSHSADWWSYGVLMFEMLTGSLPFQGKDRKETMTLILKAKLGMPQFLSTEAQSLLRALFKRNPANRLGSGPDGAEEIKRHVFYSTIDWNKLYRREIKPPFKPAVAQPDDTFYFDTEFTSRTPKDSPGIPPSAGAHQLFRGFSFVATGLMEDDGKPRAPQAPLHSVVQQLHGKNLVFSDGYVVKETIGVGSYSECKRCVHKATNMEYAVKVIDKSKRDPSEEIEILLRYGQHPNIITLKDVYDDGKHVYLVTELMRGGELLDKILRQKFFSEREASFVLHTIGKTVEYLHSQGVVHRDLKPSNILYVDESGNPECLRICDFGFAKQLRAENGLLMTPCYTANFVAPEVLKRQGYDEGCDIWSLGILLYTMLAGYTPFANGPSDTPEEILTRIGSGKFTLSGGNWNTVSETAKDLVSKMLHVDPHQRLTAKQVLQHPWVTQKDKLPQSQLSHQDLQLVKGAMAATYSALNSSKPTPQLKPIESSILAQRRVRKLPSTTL
T6 sequence (P53350 whole entry): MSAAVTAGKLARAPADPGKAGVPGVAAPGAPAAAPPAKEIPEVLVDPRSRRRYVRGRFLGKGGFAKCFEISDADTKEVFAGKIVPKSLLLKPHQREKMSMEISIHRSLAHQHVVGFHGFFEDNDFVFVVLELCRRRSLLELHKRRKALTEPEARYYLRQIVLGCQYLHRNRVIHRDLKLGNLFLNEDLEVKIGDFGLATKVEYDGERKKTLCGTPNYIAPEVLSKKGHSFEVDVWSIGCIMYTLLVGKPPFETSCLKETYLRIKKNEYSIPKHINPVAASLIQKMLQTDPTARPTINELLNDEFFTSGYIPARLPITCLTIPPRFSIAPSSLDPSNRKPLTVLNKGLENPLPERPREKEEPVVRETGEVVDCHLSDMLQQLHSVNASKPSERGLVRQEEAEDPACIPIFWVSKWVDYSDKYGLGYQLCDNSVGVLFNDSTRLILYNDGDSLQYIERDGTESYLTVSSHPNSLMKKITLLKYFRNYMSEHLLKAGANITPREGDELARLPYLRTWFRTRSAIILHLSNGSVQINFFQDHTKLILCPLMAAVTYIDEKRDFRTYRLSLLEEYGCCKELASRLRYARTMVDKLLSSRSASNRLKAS
T1 sequence (Q15759 whole entry): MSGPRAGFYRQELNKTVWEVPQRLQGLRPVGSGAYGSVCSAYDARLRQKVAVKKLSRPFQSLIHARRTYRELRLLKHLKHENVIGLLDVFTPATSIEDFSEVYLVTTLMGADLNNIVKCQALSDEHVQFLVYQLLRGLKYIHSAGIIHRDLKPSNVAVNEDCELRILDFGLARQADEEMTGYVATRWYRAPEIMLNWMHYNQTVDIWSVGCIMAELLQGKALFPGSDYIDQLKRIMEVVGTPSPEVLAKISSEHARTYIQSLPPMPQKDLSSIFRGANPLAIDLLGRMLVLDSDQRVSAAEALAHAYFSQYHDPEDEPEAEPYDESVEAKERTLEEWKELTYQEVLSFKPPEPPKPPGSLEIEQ
T3 sequence (Q16513 501-984 limits assumed): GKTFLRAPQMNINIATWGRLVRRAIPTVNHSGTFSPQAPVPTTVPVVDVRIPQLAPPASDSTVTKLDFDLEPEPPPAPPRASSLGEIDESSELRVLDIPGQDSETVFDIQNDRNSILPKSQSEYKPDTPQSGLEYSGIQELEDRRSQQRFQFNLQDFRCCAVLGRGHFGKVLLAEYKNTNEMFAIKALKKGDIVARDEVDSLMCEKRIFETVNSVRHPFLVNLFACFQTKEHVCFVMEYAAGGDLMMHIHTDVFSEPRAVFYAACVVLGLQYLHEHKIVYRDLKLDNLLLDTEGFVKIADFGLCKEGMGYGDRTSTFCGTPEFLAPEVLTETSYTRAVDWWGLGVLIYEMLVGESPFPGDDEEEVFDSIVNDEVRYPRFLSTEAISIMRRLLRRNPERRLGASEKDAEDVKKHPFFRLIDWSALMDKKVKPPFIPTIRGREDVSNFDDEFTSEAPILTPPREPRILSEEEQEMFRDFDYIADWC
T4 sequence (Q9HBH9 whole entry): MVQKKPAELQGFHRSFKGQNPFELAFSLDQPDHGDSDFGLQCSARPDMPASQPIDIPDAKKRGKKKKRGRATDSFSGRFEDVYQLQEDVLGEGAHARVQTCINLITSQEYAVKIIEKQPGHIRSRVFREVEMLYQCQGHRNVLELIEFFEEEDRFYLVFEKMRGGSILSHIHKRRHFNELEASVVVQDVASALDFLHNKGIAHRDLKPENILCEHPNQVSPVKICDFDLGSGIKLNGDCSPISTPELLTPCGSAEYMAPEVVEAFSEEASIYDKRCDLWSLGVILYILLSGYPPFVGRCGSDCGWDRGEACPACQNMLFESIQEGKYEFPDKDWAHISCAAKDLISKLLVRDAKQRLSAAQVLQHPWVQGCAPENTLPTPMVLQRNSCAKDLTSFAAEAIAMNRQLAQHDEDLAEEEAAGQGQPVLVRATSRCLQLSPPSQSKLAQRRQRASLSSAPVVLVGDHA
T7 sequence (Q9HC98 whole entry): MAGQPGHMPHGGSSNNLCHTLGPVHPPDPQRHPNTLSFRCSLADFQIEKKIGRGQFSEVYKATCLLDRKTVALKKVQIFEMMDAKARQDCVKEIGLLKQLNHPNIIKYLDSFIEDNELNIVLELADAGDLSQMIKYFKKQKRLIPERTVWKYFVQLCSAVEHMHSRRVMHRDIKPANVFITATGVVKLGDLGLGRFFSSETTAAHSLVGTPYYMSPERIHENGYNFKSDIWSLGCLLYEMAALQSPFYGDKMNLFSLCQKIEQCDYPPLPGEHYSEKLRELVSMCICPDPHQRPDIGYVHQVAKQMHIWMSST

As to `O=C(NCCCNc1nc(Nc2cccc(F)c2)ncc1Br)C1CCC1` [Compound A, cyclobutanecarboxylic acid {3-[5-bromo-2-(3-fluoro-phenylamino)-pyrimidin-4-ylamino]-propyl}-amide, reference compound], the remaining activity at 10 µM came to 80% at P38b MAPK (setting [1]); 9% at RSK1 (setting [2]); 4% on PRK2 (setting [3]); 7% on MNK2 (setting [4]); 31% on PRAK (setting [5]); 39% at PLK1 (Okadaic Acid) (setting [6]). Also, the remaining activity at 10 µM on NEK6 (setting [7]) turned out to be 93%. Further, at P38b MAPK, the “residual kinase activity P38b MAPK” value is recorded as 96%. Moreover, the “residual kinase activity RSK1” value at RSK1 amounted to 27%. On PRK2, the “residual kinase activity PRK2” value stood at 24%. Besides, at MNK2, the “residual kinase activity MNK2” value is listed as 6%. Moreover, on PRAK, the “residual kinase activity PRAK” value came out at 65%. For the same compound, at PLK1 (Okadaic Acid), the “residual kinase activity PLK1 (Okadaic Acid)” value is recorded as 95%. For the same compound, the “residual kinase activity CK2” value in the assay with CK2 (10 μM compound) was determined as 44%; in the assay with CK2 (1 μm compound), 77%. Besides, the “residual kinase activity NEK6” value at NEK6 came out at 88%.

On to `O=C(NCCCNc1nc(Nc2cccc(F)c2)ncc1C1CC1)C1CCC1` [Example 23, Cyclobutanecarboxylic acid {3-[5-cyclopropyl-2-(3-fluoro-phenylamino)-pyrimidin-4-ylamino]-propyl}-amide], for which the remaining activity at 10 µM was 92% at P38b MAPK (setting [1]); 92% at P38b MAPK (setting [8]); 24% at RSK1 (setting [2]); 24% at RSK1 (setting [9]); 60% at PRK2 (setting [3]); 60% at PRK2 (setting [10]). For the same compound, the remaining activity at 10 µM came to 10% on MNK2 (setting [4]); 10% at MNK2 (setting [11]); 96% on PRAK (setting [5]); 96% on PRAK (setting [12]); 46% on PLK1 (Okadaic Acid) (setting [6]); 46% at PLK1 (Okadaic Acid) (setting [13]). The remaining activity at 10 µM at NEK6 (setting [7]) and at NEK6 (setting [14]) was 83% each time. For the same compound, the “residual kinase activity P38b MAPK” value at P38b MAPK is reported as 86%. For the same compound, the remaining activity at 1 µM came to 86% on P38b MAPK (setting [8]); 47% at RSK1 (setting [9]); 67% at PRK2 (setting [10]); 39% on MNK2 (setting [11]); 93% on PRAK (setting [12]); 66% at PLK1 (Okadaic Acid) (setting [13]). In addition, the remaining activity at 1 µM on NEK6 (setting [14]) stood at 88%. Besides, at RSK1, the “residual kinase activity RSK1” value is recorded as 47%. Also, on PRK2, the “residual kinase activity PRK2” value is 67%. The “residual kinase activity MNK2” value at MNK2 is on record as 39%. In addition, the “residual kinase activity PRAK” value at PRAK is given as 93%. The “residual kinase activity PLK1 (Okadaic Acid)” value at PLK1 (Okadaic Acid) was 66%. The “residual kinase activity CK2” value was 107% in the assay with CK2 (10 μM compound) and 111% with CK2 (1 μm compound). Further, the residual kinase activity with CK2 (1 μM compound) is 111%; in the assay on CK2 (10 μM compound), 107%. For the same compound, the “residual kinase activity NEK6” value at NEK6 is listed as 88%.

On to `O=C(NCCCNc1nc(Nc2cccc(N3CCCC3=O)c2)ncc1C1CC1)c1cccs1` [Example 47, Thiophene-2-carboxylic acid (3-{5-cyclopropyl-2-[3-(2-oxo-pyrrolidin-1-yl)-phenylamino]-pyrimidin-4-ylamino}-propyl)-amide. Hydrochloride salt], for which the remaining activity at 1 µM on P38b MAPK (setting [8]) came out at 99%; on RSK1 (setting [9]) it was 45%; at PRK2 (setting [10]), 76%; on MNK2 (setting [11]) it was 36%; on PRAK (setting [12]), 70%; at PLK1 (Okadaic Acid) (setting [13]), 90%. Also, at NEK6 (setting [14]), the remaining activity at 1 µM was determined as 65%. For the same compound, the remaining activity at 10 µM at P38b MAPK (setting [8]) amounted to 90%; on RSK1 (setting [9]), 10%; on PRK2 (setting [10]) it was 68%; at MNK2 (setting [11]), 16%; at PRAK (setting [12]), 76%; at PLK1 (Okadaic Acid) (setting [13]), 64%. The remaining activity at 10 µM at NEK6 (setting [14]) was determined as 65%. Further, the residual kinase activity in the assay on CK2 (1 μM compound) stood at 80%; in the assay on CK2 (10 μM compound), 78%.

For `O=C(NCCCNc1nc(Nc2cccnc2)ncc1C1CC1)c1cccs1` [Example 50, Thiophene-2-carboxylic acid {3-[5-cyclopropyl-2-(pyridin-3-ylamino)-pyrimidin-4-ylamino]-propyl}-amide], the remaining activity at 1 µM on P38b MAPK (setting [8]) stood at 99%; at RSK1 (setting [9]), 49%; at PRK2 (setting [10]), 68%; on MNK2 (setting [11]), 56%; at PRAK (setting [12]), 64%; at PLK1 (Okadaic Acid) (setting [13]) it was 82%. Moreover, the remaining activity at 1 µM on NEK6 (setting [14]) was found to be 107%. Further, the remaining activity at 10 µM on P38b MAPK (setting [8]) is 89%; on RSK1 (setting [9]), 20%; at PRK2 (setting [10]), 58%; on MNK2 (setting [11]), 21%; at PRAK (setting [12]) it was 64%; at PLK1 (Okadaic Acid) (setting [13]), 60%. In addition, at NEK6 (setting [14]), the remaining activity at 10 µM was found to be 103%. The residual kinase activity with CK2 (1 μM compound) worked out at 72%; in the assay with CK2 (10 μM compound), 80%.

The values are drawn from US20100056524A1, “Compound” (priority 2008, published 2010).
